Patent US5994365A, “Substituted diazaanthracene compounds having pharmaceutical utility” (Diazans Limited, priority 1998, dated 1999)
Where “and” joins values, the source holds several entries; their conditions need not be identical. Equal entries are not always repeated.

Tests used:
[1] = tested on: Staneg (coagulase negative Staph); test: Minimal bactericidal concentration (MBC), 99.9% kill; format: cell-based, Coagulase negative staphylococci; set-up: unit not given here
Protocol: (§1) Broth microdilution was performed according to NCCLS guidelines. Microdilution panels were prepared using doubling dilutions of the dimer in ~250 μl plastic, 96-well trays. Inoculum suspension equal to a 0.5 McFarland standard were further diluted and added to the microdilution trays to achieve a final inoculum of 5×10^5 CFU/ml (5×10^4 CFU/well). Colony counts were performed to confirm the final inoculum, as well as its purity. Each strain was also tested in a growth control well containing only MHB for viability.
(§2) Various isolates were also tested for minimal bactericidal concentration (MBC) (see Tables D and F).
(§3) Subbed clear wells (50 μl) Inoculum 5 × 10^4 /well
(§4) 99.9% kill = 50 cols/well
(§5) Subbed 50 μl of ≤5 clear wells

[2] = tested on: Methicillin-resistant Staph aureus (MRSA); test: Broth microdilution (NCCLS guidelines), MIC; format: cell-based, Staphylococcus aureus
Protocol: (§6) The dimer product of Example 15 was obtained in powder form. A stock solution of 1280 mg/L of the dimer in dimethylsulfoxide (DMSO) was prepared and stored at room temperature in a foil-wrapped screw-capped tube (10 ml). Subsequent dilutions were prepared using cation-adjusted Mueller-Hinton broth (50 mg/L Mg). […] It was resuspended upon mixing each time an aliquot was taken from the solution.
(§7) Approximately 100 varied bacterial isolates were initially collected for screening, along with 9 ATCC organisms. Forty additional strains of Staphylococcus species were subsequently screened. All isolates were identified according to generally accepted lab protocol.
as §1
(§8) Microdilution trays were incubated at 35° C. in ambient air or 5% CO2 as appropriate for 16-20 hours. After incubation, the minimal inhibitory concentration (MIC) was defined as the lowest concentration of the dimer with no evidence of growth. Since 10 or more strains of most organisms were tested; a range of MICs was determined for each organism, as well as the concentration of the dimer that inhibited 50% of the strains (MIC50) and the concentration of the dimer that inhibited 90% of the strains (MIC90).

Staph aureus = test: Broth microdilution (NCCLS guidelines), MIC; format: cell-based, Staphylococcus aureus; set-up: MICs: unit not given beside the values; conditions: for 1st MIC / 2nd MIC: Table B
Protocol: as §6, §7, §1, §8

ATCC S. epid 14990 = test: Minimal bactericidal concentration (MBC), 99.9% kill; format: cell-based
Protocol: as §1, §2, §5

S. aureus = test: as above; format: cell-based, Staphylococcus aureus
Protocol: as §1, §2, §3, §4, §5

Staphylococcus species = test: Effect of age of the dimer solution on MIC (stability of the solution); format: physicochemical; conditions: stored at RT in foil wrapped tube
Excerpt: The dimer solution was two weeks old at this time. When the additional Staph strains were then retested using a freshly made solution of the dimer, the MICs were lower (see Table E). The stability of the solution stored at RT in a foil wrapped tube could be a variable contributing to the discrepancy between MICs.

[3] = Table C, 10 strains, solution 14 days old
[4] = Table E, 10 strains, fresh solution
[5] = strain S. aureus 1 (line under ATCC 25923)
[6] = Table C, Pip/Taz S. aureus, 10 strains, solution 14 days old
[7] = Table C, S. aureus, 10 strains, solution 14 days old
[8] = Table E, Pip/Taz SA, 10 strains, fresh solution
[9] = Table E, S. aureus, 10 strains, fresh solution
[10] = Table G footnote, ATCC 25923, methicillin susceptible
[11] = Table G, S. aureus (2nd clinical isolate collection), 10 strains
[12] = Table G, S. aureus (pip-tazo study), 10 strains

Substance: 10,10'-bis(3,6-dimethyl-5,10-dihydro-1,8-diazaanthracen-5-one) and 5,5'-bis(3,6-dimethyl-5,10-dihydro-1,8-diazaanthracen-10-one) [Example 15]
- MBC ([1]; Table D, Staneg 1, skipped wells): > 16
- MBC ([1]; Table D, Staneg 2, skipped wells): > 4
- MBC ([1]; Table D, Staneg 3): 16
- MBC ([1]; Table D, Staneg 4): > 16
- MBC ([1]; Table D, Staneg 5, skipped wells): 16
- MBC ([1]; Table D, Staneg 6): 8
- MBC ([1]; Table D, Staneg 7, skipped wells): > 16
- MBC ([1]; Table D, Staneg 8): 16
- MBC ([1]; Table F, Staneg 1): > 1.0
- MBC ([1]; Table F, Staneg 4, skipped wells): > 16
- MBC ([1]; Table F, Staneg 7): 1.0
- MIC50 ([2]; Table A, 12 strains): 0.5 mg/L
- MIC90 ([2]; Table A, 12 strains): 1.0 mg/L
- Range of MICs ([2]; Table A, 12 strains): 0.25 to 1.0 mg/L
- MIC ([2]; Table A, ATCC MRSA 33591): 0.5 µg/mL
- MIC50 [2, 3]: > 16 mg/L
- MIC90 [2, 3]: > 16 mg/L
- Range of MICs ([2]; Table C, 10 strains, solution 14 days old, in µg/mL): > 16
- MICs ([2]; Table C, ATCC MRSA 33591, solution 14 days old, listed as Dimer, in µg/mL): 8 and 16
- MIC50 [2, 4]: 2 mg/L
- MIC90 [2, 4]: 8 mg/L
- Range of MICs ([2]; Table E, 10 strains, fresh solution, in µg/mL): 0.5-8
- MICs ([2]; Table E, ATCC MRSA 33591 (×2), fresh solution, in µg/mL): 1.0
- MIC ([2]; Table F, MRSA 2): 8 µg/mL
- MIC ([2]; Table F, MRSA 4): 2 µg/mL
- MIC ([2]; Table F, MRSA 6): 0.5 µg/mL
- MIC50 ([2]; Table G, 10 strains): 2 mg/L
- MIC90 ([2]; Table G, 10 strains): 8 mg/L
- Range of MICs ([2]; Table G, 10 strains): 0.5 to 8 mg/L
- MIC50 (Staph aureus; Table A, 12 strains): 0.5 µg/mL
- MIC90 (Staph aureus; Table A, 12 strains): 1.0 µg/mL
- Range of MICs (Staph aureus; Table A, 12 strains): .0625 to 1.0 mg/L
- MIC (Staph aureus; Table A, ATCC MSSA 25923): 0.0625 µg/mL
- MIC (Staph aureus; Table A, ATCC MSSA 29213): 1.0 µg/mL
- 1st MIC (Staph aureus; [5]): 0.0625 µg/mL
- 2nd MIC (Staph aureus; [5]): 0.0625 µg/mL
- 1st MIC (Staph aureus; strain S. aureus 2): 1 µg/mL
- 2nd MIC (Staph aureus; strain S. aureus 2): 1 µg/mL
- 1st MIC (Staph aureus; strain S. aureus 3): 0.5 µg/mL
- 2nd MIC (Staph aureus; strain S. aureus 3): 0.125 µg/mL
- 1st MIC (Staph aureus; strain S. aureus 4): 1 µg/mL
- 2nd MIC (Staph aureus; strain S. aureus 4): 1 µg/mL
- 1st MIC (Staph aureus; strain S. aureus 5): 1 µg/mL
- 1st MIC (Staph aureus; strain S. aureus 6): 0.125 µg/mL
- 2nd MIC (Staph aureus; strain S. aureus 6): 0.25 µg/mL
- 1st MIC (Staph aureus; strain S. aureus 7): 0.5 µg/mL
- 2nd MIC (Staph aureus; strain S. aureus 7): 0.5 µg/mL
- 1st MIC (Staph aureus; strain S. aureus 8): 0.5 µg/mL
- 2nd MIC (Staph aureus; strain S. aureus 8): 1 µg/mL
- MICs (Staph aureus; Table C, ATCC MSSA 25923, solution 14 days old, listed as Dimer): 8 and > 16
- MICs (Staph aureus; Table C, ATCC MSSA 29213, solution 14 days old, listed as Dimer, in µg/mL): 4 and 8
- MIC50 (Staph aureus; [6]): 2 µg/mL
- MIC90 (Staph aureus; [6]): 8 µg/mL
- Range of MICs (Staph aureus; Table C, Pip/Taz S. aureus, 10 strains, solution 14 days old, in µg/mL): 2-16
- MIC50 (Staph aureus; [7]): 4 µg/mL
- MIC90 (Staph aureus; [7]): 16 µg/mL
- Range of MICs (Staph aureus; Table C, S. aureus, 10 strains, solution 14 days old, in µg/mL): 2-8
- MIC (Staph aureus; Table D, S. aureus 1): 2 µg/mL
- MIC (Staph aureus; Table D, S. aureus 2): 16 µg/mL
- MIC (Staph aureus; Table D, S. aureus 3): 8 µg/mL
- MIC (Staph aureus; Table D, S. aureus 4): 4 µg/mL
- MIC (Staph aureus; Table D, S. aureus 5): 16 µg/mL
- MIC (Staph aureus; Table D, S. aureus 6): 2 µg/mL
- MIC (Staph aureus; Table D, S. aureus 7): 8 µg/mL
- MIC (Staph aureus; Table D, S. aureus 8): 2 µg/mL
- MIC (Staph aureus; Table D, S. aureus 9): 2 µg/mL
- MIC (Staph aureus; Table D, S. aureus 10): 4 µg/mL
- MICs (Staph aureus; Table E, ATCC MSSA 25923, fresh solution, listed as Dimer, in µg/mL): 0.125 and 0.25
- MICs (Staph aureus; Table E, ATCC MSSA 29213 (×2), fresh solution, in µg/mL): 2
- MIC50 (Staph aureus; [8]): 1 µg/mL
- MIC90 (Staph aureus; [8]): 2 µg/mL
- Range of MICs (Staph aureus; Table E, Pip/Taz SA, 10 strains, fresh solution, in µg/mL): 0.25-2
- MIC50 (Staph aureus; [9]): 0.5 µg/mL
- MIC90 (Staph aureus; [9]): 1 µg/mL
- Range of MICs (Staph aureus; Table E, S. aureus, 10 strains, fresh solution, in µg/mL): 0.25-1
- MIC (Staph aureus; Table F, ATCC S. aureus 25923): 0.25 µg/mL
- MIC (Staph aureus; Table F, ATCC S. aureus 29213): 2 µg/mL
- MIC (Staph aureus; Table F, Pip/Taz S. aureus 1): 2 µg/mL
- MIC (Staph aureus; Table F, Pip/Taz S. aureus 3): 0.25 µg/mL
- MIC (Staph aureus; Table F, Pip/Taz S. aureus 7): 1 µg/mL
- MIC (Staph aureus; Table F, S. aureus 1): 0.25 µg/mL
- MIC (Staph aureus; Table F, S. aureus 2): 1 µg/mL
- MIC (Staph aureus; Table F, S. aureus 8): 0.5 µg/mL
- MIC (Staph aureus; [10]): 0.25 µg/mL
- MIC (Staph aureus; Table G footnote, ATCC 29213, methicillin susceptible): 2 µg/mL
- MIC50 (Staph aureus; [11]): 0.5 µg/mL
- MIC90 (Staph aureus; [11]): 1 µg/mL
- Range of MICs (Staph aureus; [11]): 0.25 to 1 mg/L
- MIC50 (Staph aureus; [12]): 1 µg/mL
- MIC90 (Staph aureus; [12]): 2 µg/mL
- Range of MICs (Staph aureus; [12]): 0.25 to 2 mg/L
- MBC (ATCC S. epid 14990; Table F, ATCC S. epid 14990): > 0.5 µg/mL
- MBC (ATCC S. epid 14990; Table G footnote, ATCC 14990 (coag neg staph)): ≥ 0.5 µg/mL
- MBC (S. aureus; Table D, S. aureus 1): 2 µg/mL
- MBC (S. aureus; Table D, S. aureus 2): > 16 µg/mL
- MBC (S. aureus; Table D, S. aureus 3): 16 µg/mL
- MBC (S. aureus; Table D, S. aureus 4): 8 µg/mL
- MBC (S. aureus; Table D, S. aureus 5): > 16 µg/mL
- MBC (S. aureus; Table D, S. aureus 6, skipped wells): > 16 µg/mL
- MBC (S. aureus; Table D, S. aureus 7): > 16 µg/mL
- MBC (S. aureus; Table D, S. aureus 8, skipped wells): > 16 µg/mL
- MBC (S. aureus; Table F, ATCC S. aureus 25923): 4 µg/mL
- MBC (S. aureus; Table F, ATCC S. aureus 29213, skipped wells): > 16 µg/mL
- MBC (S. aureus; Table F, Pip/Taz S. aureus 1): 8 µg/mL
- MBC (S. aureus; Table F, Pip/Taz S. aureus 3): 4 µg/mL
- MBC (S. aureus; Table F, Pip/Taz S. aureus 7): 2 µg/mL
- MBC (S. aureus; Table F, S. aureus 1, skipped wells): 4 µg/mL
- MBC (S. aureus; Table F, S. aureus 2): 1 µg/mL
- MBC (S. aureus; Table F, S. aureus 8, skipped wells): ≥ 8 µg/mL
- MBC (S. aureus; [10]): 4 µg/mL
- MBC (S. aureus; Table G footnote, ATCC 29213, methicillin susceptible, skipped wells): 16 µg/mL
- MICs with two weeks old dimer solution vs. original screen (Staphylococcus species): MICs appeared to be significantly higher
